Data on one compound can be found in publication PMC12246421 (NPJ Precision Oncology, 2025).

The target of the experiment is METTL21A (Methyltransferase 21A) (Homo sapiens, UniProt Q8WXB1). The experiment can be described thus: SPR. The format is binding.
Chain of METTL21A (Methyltransferase 21A) (Q8WXB1 whole entry): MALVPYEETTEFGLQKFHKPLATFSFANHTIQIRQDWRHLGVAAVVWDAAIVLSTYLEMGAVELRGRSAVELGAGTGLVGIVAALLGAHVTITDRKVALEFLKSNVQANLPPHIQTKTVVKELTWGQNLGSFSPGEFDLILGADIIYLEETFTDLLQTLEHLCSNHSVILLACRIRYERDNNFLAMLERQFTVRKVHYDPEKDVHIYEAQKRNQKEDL

Consider `O=c1c(-c2ccc(O[C@@H]3O[C@H](CO)[C@@H](O)[C@H](O)[C@H]3O)cc2)coc2cc(O)cc(O)c12` [Sop, sophoricoside], for which binding was put at a Kd of 122 µM.

In general, Kd refers to the free concentration of one partner at which half of the binding sites on the other are occupied at equilibrium, for simple one-to-one binding. A low value points to tighter binding.
